Reference: patent US20250144067A1, “PERSONALIZED STARVATION THERAPY FOR CANCER” (Faeth Therapeutics, Inc., priority 2021, published 2025)
Counter-ions that a name gives are not always drawn. Like-named read-outs stand apart in the source and are kept apart here. Ends that are not written are not given here.

Key:
[1] = system: NCI-H292 lung cancer cells; experiment: FDA drug screening, complete media vs cholesterol-free media without statin (TABLE 1); format: cell-based, human
[2] = system: NCI-H292 lung cancer cells; experiment: FDA drug screening, complete media vs cholesterol-free media with simvastatin (TABLE 2); format: cell-based, human
[3] = NCI-H292 cells, cholesterol-free media without statin, FDA drug library screen
[4] = NCI-H292 cells, complete media, FDA drug library screen
[5] = complete vs cholesterol-free media, >0 enhanced anti-cancer activity, about 0 neutral, <0 antagonist
[6] = NCI-H292 cells, cholesterol-free media with simvastatin 0.04 μM, cell growth value in FDA drug screen
[7] = NCI-H292 cells, complete media, cell growth value in FDA drug screen
[8] = complete media minus cholesterol-free media + simvastatin, >0 enhanced anti-cancer activity, about 0 neutral, <0 antagonist
[9] = NCI-H292 cells, FDA drug library screen, cholesterol-free media without statin
[10] = NCI-H292 cells, FDA drug library screen, complete media
[11] = NCI-H292 cells, FDA drug library screen, cholesterol-free media with simvastatin 0.04 μM
[12] = complete media vs cholesterol-free media + simvastatin (0.04 μM), >0 enhanced anti-cancer activity, about 0 neutral, <0 antagonist
[13] = NCI-H292 cells, cholesterol-free media without statin
[14] = complete vs cholesterol-free media, greater than 0 enhanced anti-cancer activity, about 0 neutral, below 0 antagonists
[15] = NCI-H292 cells, cholesterol-free media with simvastatin 0.04 μM, FDA drug library screen (TABLE 2)
[16] = NCI-H292 cells, complete media, FDA drug library screen (TABLE 2)
[17] = complete media minus cholesterol-free media + simvastatin (0.04 μM), >0 enhanced anti-cancer activity, about 0 neutral, <0 antagonist
[18] = Complete minus Cholesterol-free, >0 enhanced anti-cancer activity, about 0 neutral, <0 antagonist
[19] = Complete minus Cholesterol-free, […]
[20] = NCI-H292 cells in cholesterol-free media without statin
[21] = NCI-H292 cells in complete media
[22] = NCI-H292 cells, FDA library drug in cholesterol-free media with simvastatin 0.04 μM
[23] = NCI-H292 cells, FDA library drug in complete media
[24] = Complete minus Cholesterol-free, greater than 0 enhanced anti-cancer activity, about 0 neutral, below 0 antagonists
[25] = NCI-H292 cells, drug in cholesterol-free media with simvastatin 0.04 μM
[26] = NCI-H292 cells, drug in complete media

COc1c(N2CCNC(C)C2)c(F)cc2c(=O)c(C(=O)O)cn(C3CC3)c12 (stereo not shown) [Gatifloxacin]
Cholesterol-free [1, 3]: 1.137 | Complete [1, 4]: 1.266 | Difference [1, 5]: 0.13 | Cholesterol-free media + simvastatin (0.04 μM) [2, 6]: 0.9418 | Complete Media [2, 7]: 1.02 | Difference [2, 8]: 0.08

C=CC[N+]1([C@H]2C[C@H]3[C@@H]4CC[C@H]5C[C@H](O)[C@@H](N6CCOCC6)C[C@]5(C)[C@H]4CC[C@]3(C)[C@H]2OC(C)=O)CCCC1.[Br-] [Rocuronium (Bromide)]
Cholesterol-free [1]: 0.9624 | Complete [1]: 0.9092 | Difference [1]: −0.05 | Cholesterol-free media + simvastatin (0.04 μM) [2]: 0.8493 | Complete Media [2]: 1.097 | Difference [2]: 0.25

Clc1cccc(Cl)c1N=C1NCCN1 [Clonidine (hydrochloride)]
Difference ([1]; Complete minus Cholesterol-free, greater than 0 enhanced anti-cancer activity, about 0 neutral, below 0 antagonist): −0.12 | Cholesterol-free [1, 9]: 0.9351 | Complete [1, 10]: 0.8162 | Cholesterol-free media + simvastatin (0.04 μM) [2, 11]: 1.083 | Complete Media [2, 10]: 0.9532 | Difference [2, 12]: −0.13

C=CC(=O)N1CCC([C@@H]2CCNc3c(C(N)=O)c(-c4ccc(Oc5ccccc5)cc4)nn32)CC1 [Zanubrutinib]
Cholesterol-free [1, 13]: 0.7894 | Complete ([1]; NCI-H292 cells, complete media): 0.3496 | Difference [1, 14]: −0.44 | Cholesterol-free media + simvastatin (0.04 μM) [2, 15]: 0.7245 | Complete Media [2, 16]: 0.7031 | Difference [2, 17]: −0.02

CCCN[C@H]1CCc2nc(N)sc2C1 [Pramipexole (dihydrochloride hydrate)]
Difference [1, 18]: 0.05 | Cholesterol-free [1, 3]: 0.8255 | Complete [1, 4]: 0.873 | Cholesterol-free media + simvastatin (0.04 μM) [2, 11]: 1.173 | Complete Media [2, 10]: 1.35 | Difference [2, 8]: 0.18

Oxytocin (acetate)
Difference [1, 19]: −0.16 | Cholesterol-free [1, 9]: 1.734 | Complete [1, 10]: 1.57 | Cholesterol-free media + simvastatin (0.04 μM) ([2]; NCI-H292 cells, cholesterol-free media with simvastatin 0.04 μM, […]): 0.9906 | Difference ([2]; complete media minus cholesterol-free media + simvastatin, […]): 0.04

Argipressin (CYFQNCPRG; not fully specified (C-terminus, bridges); cysteine pairing not given here; UniProt P01185 20-28, looked up)
Difference [1, 19]: −0.56 | Cholesterol-free [1, 20]: 1.358 | Complete [1, 21]: 0.7951 | Cholesterol-free media + simvastatin (0.04 μM) [2, 22]: 1.506 | Complete Media [2, 23]: 1.167 | Difference ([2]; complete media vs cholesterol-free media + simvastatin (0.04 μM), […]): −0.34

COc1ccc(-c2cc(=O)c3c(O)cc(O[C@@H]4O[C@H](CO[C@@H]5O[C@@H](C)[C@H](O)[C@@H](O)[C@H]5O)[C@@H](O)[C@H](O)[C@H]4O)cc3o2)cc1O [Diosmin]
Cholesterol-free [1, 3]: 0.7178 | Complete [1, 4]: 1.465 | Difference [1, 5]: 0.75 | Cholesterol-free media + simvastatin (0.04 μM) [2, 11]: 1.252 | Difference [2, 12]: −0.10

CC(=O)/N=c1/sc(S(N)(=O)=O)nn1C [Methazolamide]
Difference [1, 24]: −0.57 | Cholesterol-free [1, 20]: 1.478 | Complete [1, 21]: 0.9069 | Cholesterol-free media + simvastatin (0.04 μM) [2, 25]: 1.441 | Complete Media [2, 26]: 1.241 | Difference [2, 12]: −0.20

Alimemazine hemitartrate
Difference [1, 18]: 0.05 | Cholesterol-free [1, 3]: 1.186 | Complete [1, 4]: 1.239 | Cholesterol-free media + simvastatin (0.04 μM) [2, 11]: 0.9971 | Complete Media [2, 10]: 1.335 | Difference [2, 8]: 0.34

COc1cc2nc(N3CCN(C(=O)c4ccco4)CC3)nc(N)c2cc1OC [Prazosin (hydrochloride)]
Difference [1, 24]: −0.52 | Cholesterol-free [1, 20]: 1.627 | Complete [1, 21]: 1.105 | Cholesterol-free media + simvastatin (0.04 μM) [2, 11]: 1.23 | Complete Media [2, 10]: 1.079 | Difference [2, 12]: −0.15

COc1ccccc1N1CCN(CCCNc2cc(=O)n(C)c(=O)n2C)CC1 [Urapidil (hydrochloride)]
Difference [1, 18]: −0.28 | Cholesterol-free [1, 13]: 1.01 | Complete ([1]; NCI-H292 cells, complete media): 0.7335 | Cholesterol-free media + simvastatin (0.04 μM) [2, 22]: 1.22 | Complete Media [2, 23]: 0.87 | Difference [2, 12]: −0.35

COc1cccc2c1C(=O)c1c(O)c3c(c(O)c1C2=O)C[C@@](O)(C(=O)CO)C[C@@H]3O[C@H]1C[C@H](N)[C@@H](O)[C@H](C)O1 [Epirubicin (hydrochloride)]
Difference [1, 18]: −0.01 | Cholesterol-free [1, 3]: −0.006463 | Complete [1, 4]: −0.01887 | Cholesterol-free media + simvastatin (0.04 μM) [2, 11]: 0.1295 | Complete Media [2, 10]: −0.004785 | Difference [2, 12]: −0.13

C[C@H]1COc2c(N3CCN(C)CC3)c(F)cc3c(=O)c(C(=O)O)cn1c23 [Levofloxacin]
Difference [1, 18]: −0.23 | Cholesterol-free [1, 13]: 1.162 | Complete ([1]; NCI-H292 cells, complete media): 0.933 | Cholesterol-free media + simvastatin (0.04 μM) [2, 25]: 1.136 | Complete Media [2, 26]: 0.944 | Difference [2, 12]: −0.19

CN1Cc2c(Cl)cc(Cl)cc2[C@H](c2cccc(S(=O)(=O)NCCOCCOCCNC(=O)NCCCCNC(=O)NCCOCCOCCNS(=O)(=O)c3cccc([C@@H]4CN(C)Cc5c(Cl)cc(Cl)cc54)c3)c2)C1 [Tenapanor]
Cholesterol-free [1, 3]: 0.6884 | Complete [1, 4]: 0.8628 | Difference [1, 5]: 0.17 | Cholesterol-free media + simvastatin (0.04 μM) [2, 6]: 1.602 | Complete Media [2, 7]: 1.62 | Difference [2, 8]: 0.02

CCCCC(CC)COC(=O)c1ccccc1O (stereo not shown) [Octisalate]
Difference [1, 18]: −0.04 | Cholesterol-free [1, 3]: 2.188 | Complete [1, 4]: 2.15 | Cholesterol-free media + simvastatin (0.04 μM) [2, 11]: 0.992 | Complete Media [2, 10]: 0.8834 | Difference [2, 12]: −0.11

CO/N=C(\C(=O)N[C@@H]1C(=O)N2C(C(=O)OCOC(=O)C(C)(C)C)=C(/C=C\c3scnc3C)CS[C@H]12)c1csc(N)n1 [Cefditoren (Pivoxil)]
Difference [1, 18]: −0.05 | Cholesterol-free [1, 3]: 1.012 | Complete [1, 4]: 0.9665 | Cholesterol-free media + simvastatin (0.04 μM) [2, 6]: 0.7736 | Complete Media [2, 7]: 0.8262 | Difference [2, 8]: 0.05

CC(C)(C)CC(C)(C)c1ccc(O)c(Cc2ccc(Cl)cc2Cl)c1 [Clofoctol]
Difference [1, 24]: −0.85 | Cholesterol-free [1, 20]: 1.815 | Complete [1, 21]: 0.9672 | Cholesterol-free media + simvastatin (0.04 μM) [2, 11]: 1.057 | Complete Media [2, 10]: 1.232 | Difference [2, 8]: 0.17

Nc1nc(Cl)nc2c1ncn2[C@H]1C[C@H](O)[C@@H](CO)O1 [Cladribine]
Difference [1, 18]: 0.07 | Cholesterol-free [1, 3]: −0.008506 | Complete [1, 4]: 0.0649 | Cholesterol-free media + simvastatin (0.04 μM) [2, 11]: 0.1545 | Complete Media [2, 10]: 0.02741 | Difference [2, 12]: −0.13

CN1CCc2c(c3ccccc3n2Cc2ccccc2)C1 [Mebhydrolin]
Difference [1, 18]: −0.31 | Cholesterol-free [1, 13]: 1.813 | Complete ([1]; NCI-H292 cells, complete media): 1.508 | Cholesterol-free media + simvastatin (0.04 μM) [2, 11]: 0.7768 | Complete Media [2, 10]: 0.6781 | Difference [2, 12]: −0.10

NC[C@H](O)c1ccc(O)c(O)c1 [Norepinephrine]
Difference [1, 18]: −0.02 | Cholesterol-free [1, 3]: 0.981 | Complete [1, 4]: 0.9634 | Cholesterol-free media + simvastatin (0.04 μM) [2, 15]: 0.9481 | Complete Media [2, 16]: 0.884 | Difference [2, 17]: −0.06

CC[C@H]1OC(=O)[C@H](C)C(=O)[C@H](C)[C@@H](O[C@@H]2O[C@H](C)C[C@H](N(C)C)[C@H]2O)[C@](C)(OC)C[C@@H](C)C(=O)[C@H](C)[C@H]2N(CCCCn3cnc(-c4cccnc4)c3)C(=O)O[C@]12C [Telithromycin]
Difference [1, 24]: −0.51 | Cholesterol-free [1, 20]: 1.316 | Complete [1, 21]: 0.8019 | Cholesterol-free media + simvastatin (0.04 μM) [2, 15]: 0.872 | Complete Media [2, 16]: 0.854 | Difference [2, 17]: −0.02

CCOC(=O)C1=C(C)NC(C)=C(C(=O)OCC)C1c1ccccc1/C=C/C(=O)OC(C)(C)C [Lacidipine]
Difference [1, 18]: −0.07 | Cholesterol-free [1, 3]: 1.081 | Complete [1, 4]: 1.013 | Cholesterol-free media + simvastatin (0.04 μM) [2, 22]: 1.8 | Complete Media [2, 23]: 0.96 | Difference [2, 12]: −0.84

CN1CCN(C2=Nc3cc(Cl)ccc3Nc3ccccc32)CC1 [Clozapine]
Difference [1, 18]: −0.23 | Cholesterol-free [1, 13]: 1.346 | Complete ([1]; NCI-H292 cells, complete media): 1.114 | Cholesterol-free media + simvastatin (0.04 μM) [2, 11]: 0.8452 | Complete Media [2, 10]: 1.094 | Difference [2, 8]: 0.25

(S)-Timolol (Maleate)
Difference [1, 18]: −0.04 | Cholesterol-free [1, 3]: 1.235 | Complete [1, 4]: 1.191 | Cholesterol-free media + simvastatin (0.04 μM) [2, 6]: 1.237 | Complete Media [2, 7]: 1.285 | Difference [2, 8]: 0.05

COc1c(-c2ccc3cc(NS(C)(=O)=O)ccc3c2)cc(-n2ccc(=O)[nH]c2=O)cc1C(C)(C)C [Dasabuvir]
Cholesterol-free [1, 13]: 1.225 | Complete ([1]; NCI-H292 cells, complete media): 0.8287 | Difference [1, 14]: −0.40 | Cholesterol-free media + simvastatin (0.04 μM) [2, 15]: 1.1 | Complete Media [2, 16]: 1.064 | Difference [2, 17]: −0.04

CC1(C)S[C@@H]2[C@H](NC(=O)Cc3ccccc3)C(=O)N2[C@H]1C(=O)O.CC1(C)S[C@@H]2[C@H](NC(=O)Cc3ccccc3)C(=O)N2[C@H]1C(=O)O.O.O.O.O.c1ccc(CNCCNCc2ccccc2)cc1 [Penicillin G benzathine (tetrahydrate)]
Difference [1, 24]: −0.54 | Cholesterol-free [1, 20]: 1.6 | Complete [1, 21]: 1.064 | Cholesterol-free media + simvastatin (0.04 μM) [2, 25]: 1.321 | Complete Media [2, 26]: 1.126 | Difference [2, 12]: −0.20
